Values of other authors in PMC8513935.

Columns and labels:
[1] = log P octanol/water from commercial databases, averaged (the ESI); conditions: Octanol (wet), 25 C
[2] = experimental, compiled by the authors from the literature (the ESI cites the sources)
[3] = derived by the authors as gas->solvent minus gas->water (a hypothetical dry solvent; the ESI), not a two-phase measurement

CCCCCCC
log K of transfer, water to solvent [1]: 4.5 log10 K | log K of transfer, gas to solvent ([2]; 1,2-Dichloroethane, 25 C): 2.98 log10 K | log K of transfer, gas to solvent ([2]; 2-Methylpropan-1-ol, 25 C): 2.87 log10 K | log K of transfer, gas to solvent ([2]; 2-Methylpropan-2-ol, 25 C): 2.9 log10 K | log K of transfer, gas to solvent ([2]; 3-Methylbutan-1-ol, 25 C): 2.89 log10 K | log K of transfer, gas to solvent ([2]; Acetonitrile, 25 C): 2.35 log10 K | log K of transfer, gas to solvent ([2]; Butan-1-ol, 25 C): 2.88 log10 K | log K of transfer, gas to solvent ([2]; Butanone, 25 C): 3.03 log10 K | log K of transfer, gas to solvent ([2]; Butyronitrile, 25 C): 2.82 log10 K | log K of transfer, gas to solvent ([2]; CCl4, 25 C): 3.48 log10 K | log K of transfer, gas to solvent ([2]; Chlorobenzene, 25 C): 3.47 log10 K | log K of transfer, gas to solvent ([2]; Chloroform, 25 C): 3.39 log10 K | log K of transfer, gas to solvent ([2]; Cyclohexanone, 25 C): 2.95 log10 K | log K of transfer, gas to solvent ([2]; Di-n-butyl ether, 25 C): 3.38 log10 K | log K of transfer, gas to solvent ([2]; Dichloromethane, 25 C): 3.27 log10 K | log K of transfer, gas to solvent ([2]; Ethanol, 25 C): 2.71 log10 K | log K of transfer, gas to solvent ([2]; Hexadecane, 25 C): 3.17 log10 K | log K of transfer, gas to solvent ([2]; Hexan-1-ol, 25 C): 2.93 log10 K | log K of transfer, gas to solvent ([2]; Hexane, 25 C): 3.5 log10 K | log K of transfer, gas to solvent ([2]; Methanol, 25 C): 2.5 log10 K | log K of transfer, gas to solvent ([2]; Octan-1-ol, 25 C): 2.95 log10 K | log K of transfer, gas to solvent ([2]; Perfluoroalkane, 25 C): 2.25 log10 K | log K of transfer, gas to solvent ([2]; Propan-1-ol, 25 C): 2.74 log10 K | log K of transfer, gas to solvent ([2]; Propan-2-ol, 25 C): 2.74 log10 K | log K of transfer, gas to solvent ([2]; Propanone, 25 C): 2.81 log10 K | log K of transfer, gas to solvent ([2]; Propionitrile, 25 C): 2.67 log10 K | log K of transfer, gas to solvent ([2]; Tetrahydrofuran, 25 C): 3.34 log10 K | log K of transfer, gas to solvent ([2]; Toluene, 25 C): 3.33 log10 K | log K of transfer, gas to solvent ([2]; Water, 25 C): -1.96 log10 K | log K of transfer, water to solvent ([3]; 1,2-Dichloroethane, 25 C): 4.94 log10 K | log K of transfer, water to solvent ([3]; 2-Methylpropan-1-ol, 25 C): 4.83 log10 K | log K of transfer, water to solvent ([3]; 2-Methylpropan-2-ol, 25 C): 4.86 log10 K | log K of transfer, water to solvent ([3]; 3-Methylbutan-1-ol, 25 C): 4.85 log10 K | log K of transfer, water to solvent ([3]; Acetone, 25 C): 4.77 log10 K | log K of transfer, water to solvent ([3]; Acetonitrile, 25 C): 4.31 log10 K | log K of transfer, water to solvent ([3]; Butan-1-ol, 25 C): 4.84 log10 K | log K of transfer, water to solvent ([3]; Butanone, 25 C): 4.99 log10 K | log K of transfer, water to solvent ([3]; Butyronitrile, 25 C): 4.78 log10 K | log K of transfer, water to solvent ([3]; CCl4, 25 C): 5.44 log10 K | log K of transfer, water to solvent ([3]; Chlorobenzene, 25 C): 5.43 log10 K | log K of transfer, water to solvent ([3]; Chloroform, 25 C): 5.35 log10 K | log K of transfer, water to solvent ([3]; Cyclohexanone, 25 C): 4.91 log10 K | log K of transfer, water to solvent ([3]; Di-n-butyl ether, 25 C): 5.34 log10 K | log K of transfer, water to solvent ([3]; Dichloromethane, 25 C): 5.23 log10 K | log K of transfer, water to solvent ([3]; Ethanol, 25 C): 4.67 log10 K | log K of transfer, water to solvent ([3]; Hexadecane, 25 C): 5.13 log10 K | log K of transfer, water to solvent ([3]; Hexan-1-ol, 25 C): 4.89 log10 K | log K of transfer, water to solvent ([3]; Hexane, 25 C): 5.46 log10 K | log K of transfer, water to solvent ([3]; Methanol, 25 C): 4.46 log10 K | log K of transfer, water to solvent ([3]; Octan-1-ol(dry), 25 C): 4.91 log10 K | log K of transfer, water to solvent ([3]; Perfluoroalkane, 25 C): 4.21 log10 K | log K of transfer, water to solvent ([3]; Propan-1-ol, 25 C): 4.7 log10 K | log K of transfer, water to solvent ([3]; Propan-2-ol, 25 C): 4.7 log10 K | log K of transfer, water to solvent ([3]; Propionitrile, 25 C): 4.63 log10 K | log K of transfer, water to solvent ([3]; Tetrahydrofuran, 25 C): 5.3 log10 K | log K of transfer, water to solvent ([3]; Toluene, 25 C): 5.29 log10 K

CCCCCl
log K of transfer, water to solvent [1]: 2.64 log10 K | log K of transfer, gas to solvent ([2]; 1,2-Dichloroethane, 25 C): 3.25 log10 K | log K of transfer, gas to solvent ([2]; 2-Methylpropan-1-ol, 25 C): 2.73 log10 K | log K of transfer, gas to solvent ([2]; 2-Methylpropan-2-ol, 25 C): 2.71 log10 K | log K of transfer, gas to solvent ([2]; Butan-2-ol, 25 C): 2.73 log10 K | log K of transfer, gas to solvent ([2]; CCl4, 25 C): 3.16 log10 K | log K of transfer, gas to solvent ([2]; Chlorobenzene, 25 C): 3.19 log10 K | log K of transfer, gas to solvent ([2]; Decan-1-ol, 25 C): 2.69 log10 K | log K of transfer, gas to solvent ([2]; Di-n-butyl ether, 25 C): 3.01 log10 K | log K of transfer, gas to solvent ([2]; Diethyl Ether, 25 C): 3.21 log10 K | log K of transfer, gas to solvent ([2]; Hexadecane, 25 C): 2.72 log10 K | log K of transfer, gas to solvent ([2]; Hexane, 25 C): 2.95 log10 K | log K of transfer, gas to solvent ([2]; Octan-1-ol, 25 C): 2.72 log10 K | log K of transfer, gas to solvent ([2]; Propan-1-ol, 25 C): 2.63 log10 K | log K of transfer, gas to solvent ([2]; Propanone, 25 C): 3.12 log10 K | log K of transfer, gas to solvent ([2]; Water, 25 C): 0.12 log10 K | log K of transfer, water to solvent ([3]; 1,2-Dichloroethane, 25 C): 3.13 log10 K | log K of transfer, water to solvent ([3]; 2-Methylpropan-1-ol, 25 C): 2.61 log10 K | log K of transfer, water to solvent ([3]; 2-Methylpropan-2-ol, 25 C): 2.59 log10 K | log K of transfer, water to solvent ([3]; Acetone, 25 C): 3 log10 K | log K of transfer, water to solvent ([3]; Butan-2-ol, 25 C): 2.61 log10 K | log K of transfer, water to solvent ([3]; CCl4, 25 C): 3.04 log10 K | log K of transfer, water to solvent ([3]; Chlorobenzene, 25 C): 3.07 log10 K | log K of transfer, water to solvent ([3]; Decan-1-ol, 25 C): 2.57 log10 K | log K of transfer, water to solvent ([3]; Di-n-butyl ether, 25 C): 2.89 log10 K | log K of transfer, water to solvent ([3]; Diethyl Ether, 25 C): 3.09 log10 K | log K of transfer, water to solvent ([3]; Hexadecane, 25 C): 2.6 log10 K | log K of transfer, water to solvent ([3]; Hexane, 25 C): 2.83 log10 K | log K of transfer, water to solvent ([3]; Octan-1-ol(dry), 25 C): 2.6 log10 K | log K of transfer, water to solvent ([3]; Propan-1-ol, 25 C): 2.51 log10 K
